Measurements reported in paper PMC6467875, “An experimentally validated approach to calculate the blood-brain barrier permeability of small molecules” (Scientific Reports, 2019).

Legend:
[1] = from experiment; ref Atkinson, Berg, 1988; cited from earlier work
MDCKII cells = test system: MDCKII cells; set-up: method as in Summerfield et al. 32; conditions: transwell, ref Summerfield et al. 32; cited from earlier work
red blood cells = test system: red blood cells; set-up: method as in Brahm et al. 40; conditions: from rate constants km for transport into red blood cells, Papp = km/2; ref Brahm et al. 40; cited from earlier work
[2] = source not stated; cited from earlier work
bovine BMECs = test system: bovine BMECs; set-up: method as in Shah et al. 33; conditions: transwell, ref Shah et al. 33; cited from earlier work
[3] = not told; cited from earlier work
[4] = Transwell permeability assay with iPSC-derived hBMECs; format: in vitro ADME; conditions: human, stem-cell derived hBMECs, obtained as part of this work
Protocol: To validate results from MD simulations, permeabilities for selected molecules were determined using the transwell assay with human induced pluripotent stem cell (iPSC)-derived hBMECs. […] Briefly, hBMECs were sub-cultured onto polyester 12-well transwell inserts with a 0.4 µm pore size (Corning) coated with 1:1 collagen IV (100 µg mL^−1, Sigma) and fibronectin (50 µg mL^−1, Sigma) at a density of 1 × 10^6 cells mL^−1 and allowed to reach confluence for another two days. Permeability experiments were performed only if the transendothelial electrical resistance (TEER) was in excess of 1500 Ω cm^2. Prior to permeability experiments, cells were washed with transport buffer (0.12 M NaCl, 25 mM NaHCO3, 3 mM KCl, 2 mM MgSO4, 2 mM CaCl2, 0.4 mM K2HPO4, 1 mM 4-(2-hydroxyethyl)-1-piperazineethanesulfonic acid (HEPES), and 0.1% human platelet poor derived serum) and 100 µL of the molecule of interest in transport buffer was introduced into the apical well.
Experimentally, solute permeabilities are determined using a transwell assay from the concentrations in the apical (luminal, CL) and basolateral (abluminal, CA) compartments after time t using:10 P=VA⋅CA/(t⋅S⋅CL), where VA is the volume of the basolateral compartment (see Supporting Material for details).

Question: Which results are given for CCC1(C)CC(=O)NC1=O (stereo not shown) [Ethosuximide]?
Answer: Log P, octanol-water partition coefficient [1]: 0.38; Papp (MDCKII cells): 9.7 ×10⁻⁶ cm/s

Question: What does the source list for CCO [Ethanol]?
Answer: Papp (red blood cells): 2100 ×10⁻⁶ cm/s; Dipole moment [2]: 1.69 D

Question: Which results are given for OCC(O)CO [Glycerol]?
Answer: Papp (bovine BMECs): 9.5 ×10⁻⁶ cm/s; Dipole moment [2]: 2.56 D

Question: For O=C=O [Carbon -dioxide, Carbon dioxide], which Dipole moment [2] is on record?
Answer: 0 D

Question: And the Papp [3]?
Answer: 1.6 ± 0.4 × 10^−1 cm/s

Question: Which results are given for Cn1c(=O)c2c(ncn2C)n(C)c1=O [Caffeine]?
Answer: Papp A→B [4]: 21 ×10⁻⁶ cm/s; Dipole moment [2]: 3.65 D

Question: With CC(C)O [Isopropanol] as the compound, how does the Papp (red blood cells) read?
Answer: 6500 ×10⁻⁶ cm/s

Question: And the Dipole moment [2]?
Answer: 1.58 D

Question: With N [Ammonia] as the compound, how does the Dipole moment [2] read?
Answer: 1.47 D
